Measured values taken from the NIST ThermoML archive (doi:10.1016/j.fluid.2006.11.005).

Experiment: xn = mol fraction of the nth substance listed
Conditions: 101.33 kPa, Liquid

ClC(Cl)Cl [trichloromethane] + CCO
mass density [kg/m3]
Conditions	288.15 K	293.15 K	298.15 K	303.15 K	308.15 K	313.15 K
x2 = 0	1498.08	1488.64	1479.15	1469.61	1460.03	1450.41
x2 = 0.0485	1472.17	1462.84	1453.46	1444.03	1434.55	1425.03
x2 = 0.0997	1444.69	1435.55	1426.28	1416.99	1407.64	1398.25
x2 = 0.1993	1389.44	1380.64	1371.77	1362.83	1353.83	1344.78
x2 = 0.2999	1331.01	1322.64	1314.2	1305.7	1297.12	1288.5
x2 = 0.4002	1269.36	1261.46	1253.5	1245.47	1237.37	1229.18
x2 = 0.4984	1204.89	1197.52	1190.08	1182.57	1174.99	1167.34
x2 = 0.5504	1168.93	1161.84	1154.69	1147.44	1140.19	1132.84
x2 = 0.6001	1133.49	1126.69	1119.83	1112.9	1105.9	1098.85
x2 = 0.6949	1062.09	1055.88	1049.61	1043.28	1036.89	1030.44
x2 = 0.794	981.537	976.02	970.455	964.839	959.165	953.436
x2 = 0.8503	933.183	927.998	922.772	917.5	912.175	906.798
x2 = 0.9001	888.356	883.494	878.595	873.653	868.659	863.612
